Data on 16 compounds can be found in US5529999A, “Antitumor compositions and methods of treatment” (Eli Lilly and Company, priority 1994, dated 1996).

Values after ≈ are worked out from the molar mass of the structure shown.

In the test the test system is CCRF-CEM cells. The test is described as follows: growth inhibition / cytotoxicity against CCRF-CEM human leukemia cells in vitro. The settings on record: serum-free UltraCHO media, 72 hours incubation, read-out: IC50 (concentration required for 50% inhibition of growth), CCRF-CEM. The test is classed as cell-based. The method, then: The in vitro data were obtained using CCRF-CEM cells, a human leukemia cell line. Foley et al., Cancer, 18:522 (1965). These cells were grown in albumin-free UltraCHO® media (BioWhittaker, Inc., Walkersville, Md.) using standard techniques. See, e.g., G. B. Grindey, et al., Journal of Molecular Pharmacology, 16:601 (1979). Dose-response curves were generated for various compounds to determine the concentration required for 50% inhibition of growth (IC50). Cluster plates were prepared in duplicate with the compound at various concentrations. Test compounds were dissolved initially in DMSO at a concentration of 4 mg/ml and further diluted with solvent to the desired concentration. Cells in serum-free UltraCHO media were added to the well at a final concentration of 4.8×10^4 cells/well in a total volume of 2.0 ml. After 72 hours of incubation (95% air, 5% CO2), cell numbers were determined on a ZBI Coulter counter. Cell number for indicated controls at the end of incubation was usually (4-6)×10^5 cells/well. Cell viability was also measured by staining with 3-[4,5-dimethylthiazol-2-yl]-2,5-diphenyl-tetrazolium bromide (MTT) using standard techniques. R. I. Freshney, Culture of Animal Cells: A Manual of Basic Technique, 253-254 (2d ed. 1987).
Column 1 refers to the example number of the compound tested; Column 2 depicts the in vitro cytoxicity against CCRF-CEM cells by relating the concentration of the test compound required for 50% inhibition of growth (IC50) of the cells in the well. The designation "CSQ" refers to the compound 4-amino-N-(5-chloro-2-quinoxalinyl)benzenesulfonamide and is used as a comparator.
As to `Nc1ccc(S(=O)(=O)Nc2cnc3c(Cl)cccc3n2)cc1` [CSQ, 4-amino-N-(5-chloro-2-quinoxalinyl)benzenesulfonamide, reference compound], the IC50 amounted to 0.8 µg/mL (≈ 2.39 µM). On to `CN(C)c1ccc(S(=O)(=O)Nc2cnc3cc(Cl)c(Cl)cc3n2)cc1` [Example 1, 4-N',N'-dimethylamino-N-(6,7-dichloro-2-quinoxalinyl)benzenesulfonamide], for which the IC50 was 0.8 µg/mL (≈ 2.01 µM). In the case of `CN(C)c1ccc(S(=O)(=O)Nc2cnc3c(Cl)cccc3n2)cc1` [Example 2, 4-N',N'-dimethylamino-N-(5-chloro-2-quinoxalinyl)benzenesulfonamide] it was 0.1 µg/mL (≈ 0.276 µM); in that of `CN1CCc2cc(S(=O)(=O)Nc3cnc4c(Cl)cccc4n3)ccc21` [Example 3, N-(5-chloro-2-quinoxalinyl)-2,3-dihydro-1-methyl-1H-indole-5-sulfonamide], 0.3 µg/mL (≈ 0.8 µM); in that of `O=S(=O)(Nc1cnc2c(Cl)cccc2n1)c1ccc2c(c1)CCO2` [Example 4, N-(5-chloro-2-quinoxalinyl)-2,3-dihydrobenzofuran-5-sulfonamide], 0.3 µg/mL (≈ 0.829 µM). In the case of `O=S(=O)(Nc1cnc2c(Cl)cccc2n1)c1ccc2occc2c1` [Example 5, N-(5-chloro-2-quinoxalinyl)benzofuran-5-sulfonamide] it was 0.2 µg/mL (≈ 0.556 µM); in that of `Cn1ccc2cc(S(=O)(=O)Nc3cnc4c(Cl)cccc4n3)ccc21` [Example 6, N-(5-chloro-2-quinoxalinyl)-1-methyl-1H-indole-5-sulfonamide], 0.4 µg/mL (≈ 1.07 µM). In the case of `CN(C)c1ccc(S(=O)(=O)Nc2cnc3cc(Cl)ccc3n2)cc1` [Example 7, 4-N',N'-dimethylamino-N-(6-chloro-2-quinoxalinyl)benzenesulfonamide] it was 1.2 µg/mL (≈ 3.31 µM); in that of `CN1CCc2cc(S(=O)(=O)Nc3cnc4cc(Cl)ccc4n3)ccc21` [Example 8, N-(6-chloro-2-quinoxalinyl)-2,3-dihydro-1-methyl-1H-indole-5-sulfonamide], 1.5 µg/mL (≈ 4 µM). For the compound `CN(C)c1ccc(S(=O)(=O)Nc2cnc3ccc(Cl)cc3n2)cc1` [Example 9, 4-(N',N'-dimethylamino)-N-(7-chloro-2-quinoxalinyl)benzenesulfonamide], the IC50 amounted to 10.4 µg/mL (≈ 28.7 µM). To `CN1CCc2cc(S(=O)(=O)Nc3cnc4ccc(Cl)cc4n3)ccc21` [Example 10, N-(7-chloro-2-quinoxalinyl)-2,3-dihydro-1-methyl-1H-indole-5-sulfonamide] belongs 10.8 µg/mL (≈ 28.8 µM). On to `CN(C)c1ccc(S(=O)(=O)Nc2cnc3cccc(Cl)c3n2)cc1` [Example 11, 4-N',N'-dimethylamino-N-(8-chloro-2-quinoxalinyl)benzenesulfonamide], for which the IC50 was 15.1 µg/mL (≈ 41.6 µM). Regarding `CN(C)c1ccc(S(=O)(=O)Nc2cnc3c(Cl)c(Cl)ccc3n2)cc1` [Example 12, 4-N',N'-dimethylamino-N-(5,6-dichloro-2-quinoxalinyl)benzenesulfonamide], the IC50 amounted to 7.2 µg/mL (≈ 18.1 µM). In the case of `O=S(=O)(Nc1cnc2c(Cl)c(Cl)ccc2n1)c1ccc2c(c1)CCO2` [Example 13, N-(5,6-dichloro-2-quinoxalinyl)-2,3-dihydrobenzofuran-5-sulfonamide] it was 6 µg/mL (≈ 15.1 µM); in that of `CN(C)c1ccc(S(=O)(=O)Nc2cnc3ccc(Cl)c(Cl)c3n2)cc1` [Example 14, 4-N',N'-dimethylamino-N-(7,8-dichloro-2-quinoxalinyl)benzenesulfonamide], 4.6 µg/mL (≈ 11.6 µM); in that of `O=S(=O)(Nc1cnc2ccc(Cl)c(Cl)c2n1)c1ccc2c(c1)CCO2` [Example 15, N-(7,8-dichloro-2-quinoxalinyl)-2,3-dihydrobenzofuran-5-sulfonamide], 10.8 µg/mL (≈ 27.3 µM).
